Here are results for 23 compounds from ChEMBL document CHEMBL1149976, “Novel, extended transition state mimic in HIV-1 protease inhibitors with peripheral C-2-symmetry” (Bioorg Med Chem Lett, 1994).

One may read the inhibition as the percentage by which the read-out fell short of the control. As a reminder, the pKi is −log10 of the Ki, conventionally taken in molar units. Read a high pKi as a small Ki.

One experiment deals with MT4. Put plainly: Inhibition of HIV-1 induced cytopathic effect in HTLV1 transformed MT-4 cells. Format: functional. The note with it: Homo sapiens, read-out: ED50 (the source's name). In general terms: Protection from cytopathic effect is a common read-out in antiviral testing.
Experiment [1] concerns the target Human immunodeficiency virus type 1 protease (Human immunodeficiency virus 1) (UniProt Q72874). Nature of the experiment: Percentage inhibition against HIV-1 protease was determined at a concentration of 12.5 uM.
Experiment [2] addresses Human immunodeficiency virus type 1 protease (Human immunodeficiency virus 1, UniProt Q72874). Put plainly: Binding affinity for HIV-1 protease.
The target in experiment [3] is Human immunodeficiency virus type 1 protease (Human immunodeficiency virus 1) (UniProt Q72874). Put plainly: Binding affinity against HIV-1 protease was determined at a concentration of 12.5 uM; Not active.
Experiment [4] shares this target. Nature of the experiment: Binding affinity against HIV-1 protease was determined at a concentration 12.5 uM; not active.

The structures appear in SMILES notation. pEC50, pKi: −log10 of the molar value. Calls of active or inactive are those of the source. No cut-off for these calls is given here.

With `CC(C)(C)[C@H](NC(=O)c1nc2ccccc2[nH]1)C(=O)N[C@@H](Cc1ccccc1)[C@@H](O)[C@H](CO)[C@H](Cc1ccccc1)NC(=O)[C@@H](NC(=O)c1nc2ccccc2[nH]1)C(C)(C)C`, in the experiment with MT4, the pEC50 is less than 5.00. Besides, the inhibition in experiment [1] was 31%.
As for `CC(C)[C@H](NC(=O)OCc1ccccc1)C(=O)N[C@@H](Cc1ccccc1)[C@@H](O)[C@H](CO)[C@H](Cc1ccccc1)NC(=O)[C@H](CC(N)=O)NC(=O)OCc1ccccc1`, in the experiment on MT4, the pEC50 is less than 5.00. In addition, the pKi in experiment [2] is 6.47.
`CC(C)(C)[C@H](NC(=O)c1nc2ccccc2[nH]1)C(=O)N[C@@H](Cc1ccccc1)[C@H](O)[C@@H](CO)[C@H](Cc1ccccc1)NC(=O)[C@@H](NC(=O)c1nc2ccccc2[nH]1)C(C)(C)C`: the pEC50 with MT4 was less than 5.00. In experiment [1], this compound showed an inhibition of 42%.
Take `CC(C)[C@H](NC(=O)OCc1ccccc1)C(=O)N[C@@H](Cc1ccccc1)[C@H](O)[C@@H](CO)[C@H](Cc1ccccc1)NC(=O)C(NC(=O)OCc1ccccc1)C(C)(C)C` (single isomer, unassigned; diastereomer B): the pEC50 in the experiment on MT4 was less than 5.00. The compound also gave an inhibition in experiment [1] of 39%.
Take `COC(=O)[C@H]([C@@H](O)[C@H](Cc1ccccc1)NC(=O)[C@@H](NC(=O)OCc1ccccc1)C(C)C)[C@H](Cc1ccccc1)NC(=O)OC(C)(C)C`: the inhibition entry in experiment [3] is “inactive”.
In experiment [2], `CC(C)C(NC(=O)OCc1ccccc1)C(=O)N[C@@H](Cc1ccccc1)[C@@H](C(=O)O)[C@H](O)[C@H](Cc1ccccc1)NC(=O)[C@@H](NC(=O)OCc1ccccc1)C(C)C` (stereo partly specified) showed a negative logarithm of the Ki (pKi) of 6.37.
`CC(C)[C@H](NC(=O)OCc1ccccc1)C(=O)N[C@@H](Cc1ccccc1)[C@@H](O)[C@H](C(=O)O)[C@H](Cc1ccccc1)NC(=O)OC(C)(C)C` registered an inhibition in experiment [1] of 18%.
With `CC(C)(C)C(NC(=O)OCc1ccccc1)C(=O)N[C@@H](Cc1ccccc1)[C@H](CO)[C@@H](O)[C@H](Cc1ccccc1)NC(=O)[C@@H](NC(=O)OCc1ccccc1)C(C)(C)C` (single isomer, unassigned; diastereomer B), in the experiment with MT4, the pEC50 was less than 5.00. This compound also showed a pKi in experiment [2] of 6.59.
For the compound `CC(C)[C@H](NC(=O)OCc1ccccc1)C(=O)N[C@@H](Cc1ccccc1)[C@@H](O)[C@@H](CO)[C@H](Cc1ccccc1)NC(=O)[C@@H](CC(N)=O)NC(=O)OCc1ccccc1`, the pEC50 with MT4 was less than 5.00. The inhibition in experiment [1] was determined as 32%.
Take `CC(C)[C@H](NC(=O)OCc1ccccc1)C(=O)N[C@@H](Cc1ccccc1)[C@H](O)[C@@H](CO)[C@H](Cc1ccccc1)NC(=O)OC(C)(C)C`: the pEC50 with MT4 is less than 5.00. Further, the pKi in experiment [2] is 5.43.
In experiment [1], `COC(=O)[C@@H]([C@H](O)[C@H](Cc1ccccc1)NC(=O)[C@@H](NC(=O)OCc1ccccc1)C(C)C)[C@H](Cc1ccccc1)NC(=O)OC(C)(C)C` had an inhibition of 20%.
Turning to `CC(C)(C)[C@H](N)C(=O)N[C@@H](Cc1ccccc1)[C@@H](O)[C@H](CO)[C@H](Cc1ccccc1)NC(=O)[C@@H](N)C(C)(C)C`, in the experiment with MT4, the pEC50 is less than 5.00. Moreover, the inhibition in experiment [1] amounted to 22%.
As to `CC(C)(C)[C@H](NC(=O)OCc1nc2ccccc2[nH]1)C(=O)N[C@@H](Cc1ccccc1)[C@@H](O)[C@H](CO)[C@H](Cc1ccccc1)NC(=O)[C@@H](NC(=O)OCc1nc2ccccc2[nH]1)C(C)(C)C`, the pEC50 with MT4 is 6.30. The pKi in experiment [2] is 7.89.
In the case of `CC(C)(C)C(NC(=O)OCc1ccccc1)C(=O)N[C@@H](Cc1ccccc1)[C@@H](CO)[C@H](O)[C@H](Cc1ccccc1)NC(=O)[C@@H](NC(=O)OCc1ccccc1)C(C)(C)C` (single isomer, unassigned; diastereomer A), the pEC50 in the experiment with MT4 is 5.80. In experiment [2], the pKi was 7.89.
Regarding `CC(C)(C)[C@H](N)C(=O)N[C@@H](Cc1ccccc1)[C@H](O)[C@@H](CO)[C@H](Cc1ccccc1)NC(=O)[C@@H](N)C(C)(C)C`, the pEC50 in the experiment on MT4 was less than 5.00. This compound returned an inhibition in experiment [1] of 8%.
As to `CC(C)(C)[C@H](NC(=O)CCc1nc2ccccc2[nH]1)C(=O)N[C@@H](Cc1ccccc1)[C@@H](O)[C@H](CO)[C@H](Cc1ccccc1)NC(=O)[C@@H](NC(=O)CCc1nc2ccccc2[nH]1)C(C)(C)C`, the pEC50 with MT4 is 6.28. For the same compound, in experiment [2], the pKi was 8.05.
As for `CC(C)[C@H](NC(=O)OCc1ccccc1)C(=O)N[C@@H](Cc1ccccc1)[C@H](O)[C@@H](C(=O)O)[C@H](Cc1ccccc1)NC(=O)OC(C)(C)C`, the inhibition entry in experiment [4] is “inactive”.
Consider `CC(C)(C)[C@H](NC(=O)CCc1nc2ccccc2[nH]1)C(=O)N[C@@H](Cc1ccccc1)[C@H](O)[C@@H](CO)[C@H](Cc1ccccc1)NC(=O)[C@@H](NC(=O)CCc1nc2ccccc2[nH]1)C(C)(C)C`, for which the pEC50 with MT4 was less than 5.00. For the same compound, the negative logarithm of the Ki (pKi) in experiment [2] was 6.80.
Taken in the same sequence, the figures for `CC(C)C(NC(=O)OCc1ccccc1)C(=O)N[C@@H](Cc1ccccc1)[C@H](CO)[C@@H](O)[C@H](Cc1ccccc1)NC(=O)[C@@H](NC(=O)OCc1ccccc1)C(C)C` (single isomer, unassigned; diastereomer B) were less than 5.00 and 6.29.
With `CC(C)(C)[C@H](NC(=O)OCc1nc2ccccc2[nH]1)C(=O)N[C@@H](Cc1ccccc1)[C@H](O)[C@@H](CO)[C@H](Cc1ccccc1)NC(=O)[C@@H](NC(=O)OCc1nc2ccccc2[nH]1)C(C)(C)C`, the pEC50 with MT4 is 5.33. Moreover, the pKi in experiment [2] is 7.54.
On the same counts, the results for `CC(C)C(NC(=O)OCc1ccccc1)C(=O)N[C@@H](Cc1ccccc1)[C@@H](CO)[C@H](O)[C@H](Cc1ccccc1)NC(=O)[C@@H](NC(=O)OCc1ccccc1)C(C)C` (single isomer, unassigned; diastereomer A) are 5.43 and 7.57.
As to `CC(C)[C@H](NC(=O)OCc1ccccc1)C(=O)N[C@@H](Cc1ccccc1)[C@@H](O)[C@H](CO)[C@H](Cc1ccccc1)NC(=O)C(NC(=O)OCc1ccccc1)C(C)(C)C` (stereo partly specified), the pEC50 with MT4 is 5.60. In addition, in experiment [2], the pKi was 7.80.
Turning to `CC(C)[C@H](NC(=O)OCc1ccccc1)C(=O)N[C@@H](Cc1ccccc1)[C@@H](O)[C@H](CO)[C@H](Cc1ccccc1)NC(=O)OC(C)(C)C`, in the experiment on MT4, the pEC50 was less than 5.00. In experiment [2], this compound showed a pKi of 6.54.
